The assay has as its target T1, MerTK (Homo sapiens, UniProt Q12866).
T1 construct: endogenous in cells; host or cells: Jurkat cells
T1 sequence (Q12866 21-999): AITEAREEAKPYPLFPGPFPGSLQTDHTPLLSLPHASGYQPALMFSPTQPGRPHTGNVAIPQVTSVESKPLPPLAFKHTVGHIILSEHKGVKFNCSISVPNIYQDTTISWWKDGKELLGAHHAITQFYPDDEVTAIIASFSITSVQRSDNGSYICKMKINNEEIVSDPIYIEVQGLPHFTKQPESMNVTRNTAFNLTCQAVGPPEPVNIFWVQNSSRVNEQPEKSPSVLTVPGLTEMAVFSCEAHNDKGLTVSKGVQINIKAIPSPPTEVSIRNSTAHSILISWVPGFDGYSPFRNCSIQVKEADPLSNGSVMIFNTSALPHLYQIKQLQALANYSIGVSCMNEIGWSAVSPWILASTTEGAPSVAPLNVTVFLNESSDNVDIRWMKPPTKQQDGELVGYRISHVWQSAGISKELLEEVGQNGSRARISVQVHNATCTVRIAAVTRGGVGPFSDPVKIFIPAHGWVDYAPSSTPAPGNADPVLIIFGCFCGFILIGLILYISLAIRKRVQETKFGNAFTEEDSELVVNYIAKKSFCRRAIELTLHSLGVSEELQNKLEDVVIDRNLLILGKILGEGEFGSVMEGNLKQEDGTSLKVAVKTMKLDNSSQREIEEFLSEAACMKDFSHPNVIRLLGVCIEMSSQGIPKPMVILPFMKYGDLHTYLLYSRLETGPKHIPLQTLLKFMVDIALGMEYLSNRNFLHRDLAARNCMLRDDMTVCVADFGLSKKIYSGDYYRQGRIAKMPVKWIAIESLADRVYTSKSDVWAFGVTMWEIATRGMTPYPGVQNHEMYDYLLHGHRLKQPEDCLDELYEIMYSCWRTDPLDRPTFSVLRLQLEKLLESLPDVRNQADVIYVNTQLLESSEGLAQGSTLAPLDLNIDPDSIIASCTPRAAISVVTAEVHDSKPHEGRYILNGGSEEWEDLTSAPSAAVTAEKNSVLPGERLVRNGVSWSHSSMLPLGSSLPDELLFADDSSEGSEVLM
The experiment in a line: MerTk degradation in Jurkat cells (Western blot). Format: cell-based. The settings on record: Jurkat, 4 h, 0.001-1 μM, 4 hour-incubation at 37° C., read-out: Jurkat Max % MerTK Degradation. In outline: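 Jurkat cells treated 4 h at 37 °C with compound at 0.001-1 μM final. RIPA lysates quantified by BCA, then MerTK probed by Western blot against actin loading control with IR-dye secondaries and Odyssey imaging.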

The structures appear in SMILES notation. Where a name gives a salt, the structure may show the parent alone. A value given as a limit tells only on which side of the number the result lay.

For the molecule `CCCCNc1ncc2c(-c3ccc(CNCCCCOCCCCc4ccc5c(c4)n(C)c(=O)n5[C@H]4CCC(=O)NC4=O)cc3)cn([C@H]3CC[C@H](O)CC3)c2n1` [I-53, 3-[5-(4-[4-[([4-[2-(butylamino)-7-[trans-4-hydroxycyclohexyl]-7H-pyrrolo[2,3-d]pyrimidin-5-yl]phenyl]methyl)amino]butoxy]butyl)-3-methyl-2-oxo-2,3-dihydro-1H-1,3-benzodiazol-1-yl]piperidine-2,6-dione hydrochloride], the Dmax was greater than 50%. In the case of `Cn1c(=O)n([C@H]2CCC(=O)NC2=O)c2ccc(CCCOCCOCCN3CCN(C[C@H]4CC[C@H](c5cn([C@H]6CC[C@H](O)CC6)c6nc(NCCC(F)(F)F)ncc65)CC4)CC3)cc21` [I-154, 3-[3-methyl-2-oxo-5-(3-[2-[2-(4-[[(1r,4r)-4-[7-[trans-4-hydroxycyclohexyl]-2-[(3,3,3-trifluoropropyl)amino]pyrrolo[2,3-d]pyrimidin-5-y1]cyclohexyl]methyl]piperazin-1-y1)ethoxy]ethoxy]propyl)-1,3-benzodiazol-1-yl]piperidine-2,6-dione] it was greater than 50%; in that of `CCC1CN(c2ccc(-c3ccnc(Nc4cc(OC)c(OC)c(OCCOCCOCCOCCOCCNc5cccc6c5C(=O)N(C5CCC(=O)NC5=O)C6=O)c4)n3)cn2)CCN1` (stereo not shown) [I-234], less than 20%. The figure for `COC[C@H](C)Nc1ncc2c(-c3ccc(CN4CCN(CCOCCOCCOCCOCCNc5cccc6c5n(C)c(=O)n6C5CCC(=O)NC5=O)CC4)cc3)cn([C@H]3CC[C@H](O)CC3)c2n1` (stereo partly drawn) [I-4, Trans-3-[4-[15-(4-[[4-(2-[[(2S)-1-methoxypropan-2-yl]amino]-7-[4-hydroxycyclohexyl]-7H-pyrrolo[2,3-d]pyrimidin-5-yl)phenyl]methyl]piperazin-1-yl)-4,7,10,13-tetraoxa-1-azapentadecan-1-yl]-3-methyl-2-oxo-2,3-dihydro-1H-1,3-benzodiazol-1-yl]piperidine-2,6-dione bis(formic acid)] is greater than 50%; for `CCCCNc1ncc2c(-c3ccc(S(=O)(=O)N4CCN(C(=O)COCCOCCOCCOCCNc5cccc6c5C(=O)N(C5CCC(=O)NC5=O)C6=O)CC4)cc3)nn([C@H]3CC[C@H](O)CC3)c2n1` (stereo partly drawn) [I-32, 4-((14-(4-((4-(6-(butylamino)-1-(trans-4-hydroxycyclohexyl)-1H-pyrazolo[3,4-d]pyrimidin-3-yl)phenyl)sulfonyl)piperazin-1-yl)-14-oxo-3,6,9,12-tetraoxatetradecyl)amino)-2-(2,6-dioxopiperidin-3-yl)isoindoline-1,3-dione] it is greater than 50%; for `Cn1c(=O)n([C@H]2CCC(=O)NC2=O)c2ccc(CCOC3CN(C4CCN(Cc5ccc(-c6cn([C@H]7CC[C@H](O)CC7)c7nc(NCCC(F)(F)F)ncc67)cc5)CC4)C3)cc21` [I-144, 3-(3-methyl-2-oxo-5-[2-[(1-[1-[(4-[7-[trans-4-hydroxycyclohexy1]-2-[(3,3,3-trifluoropropyl)amino]pyrrolo[2,3-d]pyrimidin-5-yl]phenyl)methyl]piperidin-4-yl]azetidin-3-yl)oxy]ethyl]-1,3-benzodiazol-1-yl)piperidine-2,6-dione; formic acid] it is greater than 50%.

Turning to `Cn1c(=O)n(C2CCC(=O)NC2=O)c2ccc(CCOCCN3CCC(N4CCN(Cc5ccc(-c6cn([C@H]7CC[C@H](O)CC7)c7nc(NCCC(F)(F)F)ncc67)cc5)CC4)C3)cc21` (stereo partly drawn) [I-132, 3-(3-methyl-2-oxo-5-[2-[2-(3-[4-[(4-[7-[trans-4-hydroxycyclohexyl]-2-[(3,3,3-trifluoropropyl)amino]-7H-pyrrolo[2,3-d]pyrimidin-5-yl]phenyl)methyl]piperazin-1-yl]pyrrolidin-1-yl)ethoxy]ethyl]-2,3-dihydro-1H-1,3-benzodiazol-1-yl)piperidine-2,6-dione], the Dmax was greater than 50%. Consider `Cn1c(=O)n([C@H]2CCC(=O)NC2=O)c2ccc(CCCOCCOCCN3CCN(Cc4ccc(-c5nn([C@H]6CC[C@H](O)CC6)c6nc(NCCC(F)(F)F)ncc56)cc4)CC3)cc21` [I-64, 3-(3-methyl-2-oxo-5-[3-[2-(2-[4-[(4-[1-[trans-4-hydroxycyclohexyl]-6-[(3,3,3-trifluoropropyl)amino]-1H-pyrazolo[3,4-d]pyrimidin-3-yl]phenyl)methyl]piperazin-1-yl]ethoxy)ethoxy]propyl]-2,3-dihydro-1H-1,3-benzodiazol-1-y1)piperidine-2,6-dione], for which the Dmax is greater than 50%.

As to `C[C@H](CC(F)(F)F)Nc1ncc2c(-c3ccc(CN4CCN(C5CC(OCCc6ccc7c(c6)n(C)c(=O)n7C6CCC(=O)NC6=O)C5)CC4)cc3)cn([C@H]3CC[C@H](O)CC3)c2n1` (stereo partly drawn) [I-194, 3-[3-methyl-2-oxo-5-[2-(3-[4-[(4-[7-[trans-4-hydroxycyclohexy1]-2-[[(2R)-4,4,4-trifluorobutan-2-yl]amino]pyrrolo[2,3-d]pyrimidin-5-yl]phenyl)methyl]piperazin-1-yl]cyclobutoxy)ethyl]-1,3-benzodiazol-1-yl]piperidine-2,6-dione], the Dmax is greater than 50%. Take `CCC[C@H](C)Nc1ncc2c(-c3ccc(CN4CCN(CCCOC5CCN(Cc6ccc7c(c6)n(C)c(=O)n7C6CCC(=O)NC6=O)CC5)CC4)cc3)cn([C@H]3CC[C@H](O)CC3)c2n1` (stereo partly drawn) [I-189, 3-(3-methyl-2-oxo-5-[[4-(3-[4-[(4-[2-[(2S)-pentan-2-ylamino]-7-[trans-4-hydroxycyclohexyl]pyrrolo[2,3-d]pyrimidin-5-yl]phenyl)methyl]piperazin-1-yl]propoxy)piperidin-1-y1]methyl]-1,3-benzodiazol-1-y1)piperidine-2,6-dione; formic acid]: the Dmax is greater than 50%. For `CN(C)c1cccc2c(S(=O)(=O)Nc3cccc(-c4cnc(NCCOCCOCCOCCN5CCN(Cc6ccc(-c7cn([C@H]8CC[C@H](O)CC8)c8nc(NCCC(F)(F)F)ncc78)cc6)CC5)nc4N4CCC(c5ccccc5)C4C(=O)O)c3)cccc12` (stereo partly drawn) [I-169, 1-(5-[3-[5-(dimethylamino)naphthalene-1-sulfonamido]phenyl]-2-(12-[4-[(4-[7-[trans-4-hydroxycyclohexyl]-2-[(3,3,3-trifluoropropyl)amino]pyrrolo[2,3-d]pyrimidin-5-yl]phenyl)methyl]piperazin-1-yl]-4,7,10-trioxa-1-azadodecan-1-yl)pyrimidin-4-yl)-3-phenylpyrrolidine-2-carboxylic acid], the Dmax was less than 20%. Consider `CCCCNc1ncc2c(-c3ccc(CNCCCc4ccc5c(c4)n(C)c(=O)n5[C@H]4CCC(=O)NC4=O)cc3)cn([C@H]3CC[C@H](O)CC3)c2n1` [I-46, 3-(5-[3-[([4-[2-(butylamino)-7-[trans-4-hydroxycyclohexyl]-7H-pyrrolo[2,3-d]pyrimidin-5-yl]phenyl]methyl)amino]propyl]-3-methyl-2-oxo-2,3-dihydro-1H-1,3-benzodiazol-1-yl)piperidine-2,6-dione; formic acid], for which the Dmax is greater than 50%. For `C[C@@H](CC(F)(F)F)Nc1ncc2c(-c3ccc(CN4CCN(CCCOC5CN(Cc6ccc7c(c6)n(C)c(=O)n7C6CCC(=O)NC6=O)C5)CC4)cc3)cn([C@H]3CC[C@H](O)CC3)c2n1` (stereo partly drawn) [I-201, 3-(3-methyl-2-oxo-5-[[3-(3-[4-[(4-[7-[trans-4-hydroxycyclohexy1]-2-[[(2S)-4,4,4-trifluorobutan-2-yl]amino]pyrrolo[2,3-d]pyrimidin-5-y1]phenyl)methyl]piperazin-1-yl]propoxy)azetidin-1-yl]methy1]-1,3-benzodiazol-1-yl)piperidine-2,6-dione; tris(formic acid)], the Dmax was 20 to 50%.

The values above are taken from patent US20260042762A1 (Kymera Therapeutics, Inc., priority 2018, published 2026).
